Values quoted from earlier work in patent publication US20230045688A1 (priority 2020, published 2023).

Test system: SARS-CoV
Conditions: disruption of oligosaccharide formation; Vincent et al. 2005; Savarino et al. 2006

SMILES: CCN(CC)CCCC(C)Nc1ccnc2cc(Cl)ccc12 (stereo not shown) [chloroquine]
- SARS-CoV infectivity: significantly decreases SARS-CoV infectivity
